The assay concerns the target T1, 5-Lipoxygenase (Homo sapiens, UniProt P09917).
T1 construct: endogenous in cells; host or cells: human heparinized whole blood (blood leukocytes), stimulated with calcium ionophore A23187
T1 sequence (P09917 1-674): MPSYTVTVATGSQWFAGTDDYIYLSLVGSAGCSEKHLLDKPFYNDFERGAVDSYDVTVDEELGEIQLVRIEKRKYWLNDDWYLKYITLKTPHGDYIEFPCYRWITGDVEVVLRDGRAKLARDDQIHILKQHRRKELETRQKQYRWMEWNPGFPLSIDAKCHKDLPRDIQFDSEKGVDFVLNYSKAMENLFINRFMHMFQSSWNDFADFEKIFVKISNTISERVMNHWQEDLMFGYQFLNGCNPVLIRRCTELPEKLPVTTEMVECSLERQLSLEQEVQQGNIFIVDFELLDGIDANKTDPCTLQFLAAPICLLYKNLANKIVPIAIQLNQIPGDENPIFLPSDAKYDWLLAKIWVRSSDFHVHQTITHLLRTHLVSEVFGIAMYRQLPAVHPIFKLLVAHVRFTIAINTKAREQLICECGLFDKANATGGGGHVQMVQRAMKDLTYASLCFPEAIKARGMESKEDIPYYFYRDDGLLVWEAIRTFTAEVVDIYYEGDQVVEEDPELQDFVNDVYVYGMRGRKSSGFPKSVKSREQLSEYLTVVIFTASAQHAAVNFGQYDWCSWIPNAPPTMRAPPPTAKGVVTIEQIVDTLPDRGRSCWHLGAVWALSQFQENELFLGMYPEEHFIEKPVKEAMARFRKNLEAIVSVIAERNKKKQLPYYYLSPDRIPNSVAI
Nature of the assay: Inhibition of calcium ionophore-induced LTB4 biosynthesis in human whole blood. In kind it is cell-based. The following applies: A23187 8.3 μM; for IC50: human heparinized whole blood, 15 min preincubation at 37° C., 30 min, LTB4 by radioimmunoassay, read-out: IC50, in vitro inhibitory potency against 5-lipoxygenase from stimulated LTB4 formation in human whole blood. The protocol:
Inhibition of leukotriene biosynthesis was evaluated in an assay, involving calcium ionophore-induced LTB4 biosynthesis expressed human whole blood. Human heparinized whole blood was preincubated with test compounds or vehicle for 15 min at 37° C. followed by calcium ionophore A23187 challenge (final concentration of 8.3 μM) and the reaction terminated after 30 min by adding two volumes of methanol containing prostaglandin B2 as an internal recovery standard. The methanol extract was analyzed for LTB4 using a commercially available radioimmunoassay.

[1] abbreviates: human whole blood, read-out: % inhibition of stimulated LTB4 formation in human whole blood.

The values below come from patent publication US5350765A, “Ether-containing inhibitors of 5-lipoxygenase” (Abbott Laboratories, priority 1993, dated 1994).

Regarding `COC1(/C=C/COCC#Cc2ccccn2)CCOCC1` [Example 22, 4-methoxy-4-[3-((2-(pyrid-2-yl)ethynyl)methoxy)-trans-propen-1-yl]tetrahydropyran], the inhibition (as a rule, the drop in the measured response relative to a control, in per cent) at 12.5 µM under setting [1] came to 18%. `COC1(C#CCOCc2ccc3ccccc3c2)CCOCC1` [Example 1, 4-methoxy-4-[3-((napth-2-yl)methoxy)-prop-1-ynyl]tetrahydropyran]: the half-inhibitory concentration (IC50) (commonly the concentration that inhibits the measured activity by half) came out at 3800 nM.

On to `COC1(/C=C/COCc2ccc3ccccc3c2)CCOCC1` [Example 3], for which the concentration for half-maximal inhibition (IC50) came to 700 nM.

In the case of `COC1(/C=C/COCc2ccc(-c3ccccc3)cc2)CCOCC1` [Example 8, 4-methoxy-4-[3-((4-phenylphen-1-yl)methoxy)-trans-prop-1-enyl]tetrahydropyran], the inhibition at 12.5 µM under setting [1] worked out at 11%. Regarding `COC1(CCCOCc2ccc3ccccc3c2)CCOCC1` [Example 5, 4-methoxy-4-[3-((napth-2yl)methoxy)-prop-1-yl]tetrahydropyran], the IC50 stood at 1500 nM. As for `COC1(/C=C/C(C)OCc2ccc3ccccc3c2)CCOCC1` (stereo not drawn) [Example 4, 4-methoxy-4-[3-methyl-3-((napth-2yl)methoxy)- trans-prop-1-enyl]tetrahydropyran], under setting [1], the inhibition at 12.5 µM worked out at 99%.

Consider `COC1(/C=C/C(=O)NCc2ccc3c(ccc(=O)n3C)c2)CCOCC1` [Example 21], for which the inhibition at 0.39 µM under setting [1] worked out at 50%. As for `COC1(C#CC(C)OCc2ccc3ccccc3c2)CCOCC1` (centres unmarked) [Example 2, 4-methoxy-4-[3-methyl-3-(((napth-2yl)methoxy))-prop-1-ynyl]tetrahydropyran], the inhibition at 12.5 µM under setting [1] came to 95%.

As to `COC1(/C=C/COCc2ccc3c(ccc(=O)n3C)c2)CCOCC1` [Example 6, 4-methoxy-4-[3-((1,2-dihydro-1-methyl-2-oxoquinolin-6-yl)methoxy)-trans-prop-1-enyl]tetrahydropyran], the inhibition at 0.39 µM under setting [1] stood at 51%. In the case of `COC1(/C=C/CSc2ccc3ccccc3c2)CCOCC1` [Example 19, 4-methoxy-4-[3-(napth-2-ylthioxy)-trans-prop-1-enyl]tetrahydropyran], under “at 0.10 μM, human whole blood, read-out: % inhibition of stimulated LTB4 formation in human whole blood”, the inhibition at 0.1 µM is 34%. For the compound `COC1(/C=C/C(=O)NCc2ccc3ccccc3c2)CCOCC1` [Example 20, 3-(4-methoxytetrahydropyran-4-yl)-N-((napth-2-yl)methyl)-trans-propionyl amide], the IC50 stood at 260 nM.
